From the supplement of paper PMC10307832

How the values were obtained:
Experiment in all cases: relative viability (nuclei count vs DMSO), 5 days (fraction); higher = more cells survive
[1] = compound: CC1=NC=CC(=C1)C2=CC=C(C=C2)CC(=O)NC3=CC=C(C=C3)C4=CN=CC=C4 [Wnt-C59] + COc1cccc2cc(-c3nc([C@H]4CC[C@H](C(=O)O)CC4)n4ncnc(N)c34)[nH]c12 [OSI-027] (partner 0.5 µM)
Summary of the method: (§1)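 Lung cancer cell lines were seeded in 1536-well plates and dosed by pin tool the next day, with either a single drug or a fixed anchor-drug dose combined with five library-drug doses (not always all listed) spaced in √10 steps. Five days later, one step fixed the cells and stained their nuclei (final 0.05% Triton X-100, 1% formaldehyde, 1 ug/ml Hoechst), and nuclei were counted on 4× images. Relative viability is the nuclei count in treated wells divided by the count in vehicle wells, and each value is the median of duplicate plates.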

[2] = compound: CC1=NC=CC(=C1)C2=CC=C(C=C2)CC(=O)NC3=CC=C(C=C3)C4=CN=CC=C4 [Wnt-C59] + CS(=O)(=O)N1CCN(Cc2cc3nc(-c4cccc5[nH]ncc45)nc(N4CCOCC4)c3s2)CC1 [Pictilisib] (partner 1 µM)
Summary of the method: as §1

[3] = compound: CS(=O)(=O)CCNCc1ccc(-c2ccc3ncnc(Nc4ccc(OCc5cccc(F)c5)c(Cl)c4)c3c2)o1 [Lapatinib] + CS(=O)(=O)N1CCN(Cc2cc3nc(-c4cccc5[nH]ncc45)nc(N4CCOCC4)c3s2)CC1 [Pictilisib] (partner 1 µM)
Summary of the method: as §1

[4] = compound: CS(=O)(=O)CCNCc1ccc(-c2ccc3ncnc(Nc4ccc(OCc5cccc(F)c5)c(Cl)c4)c3c2)o1 [Lapatinib] + C[C@]1(O)C[C@@H](c2nc(-c3ccc4ccc(-c5ccccc5)nc4c3)c3c(N)nccn32)C1 [Linsitinib] (partner 1 µM)
Summary of the method: as §1

NCI-H1666 showed a relative viability ([1]; first compound 0.001 µM) of 0.825, a relative viability ([1]; first compound 0.01 µM) of 0.849 and a relative viability ([1]; first compound 0.03162 µM) of 0.873. For the same cell line, the relative viability ([1]; first compound 0.1 µM) was 0.876, the relative viability ([2]; first compound 0.001 µM) was 0.43 and the relative viability ([2]; first compound 0.01 µM) was 0.218. For the same cell line, the relative viability ([2]; first compound 0.03162 µM) was 0.479, the relative viability ([2]; first compound 0.1 µM) was 0.477 and the relative viability ([3]; first compound 0.02 µM) was 0.33. For the same cell line, the relative viability ([3]; first compound 0.06325 µM) was 0.327, the relative viability ([3]; first compound 0.2 µM) was 0.39 and the relative viability ([3]; first compound 0.6325 µM) was 0.329. The relative viability ([3]; first compound 2 µM) was 0.2, the relative viability ([4]; first compound 0.02 µM) was 0.822 and the relative viability ([4]; first compound 0.06325 µM) was 0.681. For the same cell line, the relative viability ([4]; first compound 0.2 µM) was 0.704, the relative viability ([4]; first compound 0.6325 µM) was 0.611 and the relative viability ([4]; first compound 2 µM) was 0.248.
For HCC-44, the relative viability ([1]; first compound 0.001 µM) was 0.768, the relative viability ([1]; first compound 0.01 µM) was 0.671 and the relative viability ([1]; first compound 0.03162 µM) was 0.538. For the same cell line, the relative viability ([1]; first compound 0.1 µM) was 0.608, the relative viability ([2]; first compound 0.001 µM) was 0.597 and the relative viability ([2]; first compound 0.01 µM) was 0.639. It also gave a relative viability ([2]; first compound 0.03162 µM) of 0.621, a relative viability ([2]; first compound 0.1 µM) of 0.772 and a relative viability ([3]; first compound 0.02 µM) of 0.606. The relative viability ([3]; first compound 0.06325 µM) was 1.03, the relative viability ([3]; first compound 0.2 µM) was 0.66 and the relative viability ([3]; first compound 0.6325 µM) was 0.654. For the same cell line, the relative viability ([3]; first compound 2 µM) was 0.421, the relative viability ([4]; first compound 0.02 µM) was 0.709 and the relative viability ([4]; first compound 0.06325 µM) was 0.648. It also gave a relative viability ([4]; first compound 0.2 µM) of 0.628, a relative viability ([4]; first compound 0.6325 µM) of 0.627 and a relative viability ([4]; first compound 2 µM) of 0.493.
HCC-366 was tested, and the relative viability ([1]; first compound 0.001 µM) was 0.774, the relative viability ([1]; first compound 0.01 µM) was 0.542 and the relative viability ([1]; first compound 0.03162 µM) was 1.02. It also gave a relative viability ([1]; first compound 0.1 µM) of 1.04, a relative viability ([2]; first compound 0.001 µM) of 0.113 and a relative viability ([2]; first compound 0.01 µM) of 0.138. For the same cell line, the relative viability ([2]; first compound 0.03162 µM) was 0.149, the relative viability ([2]; first compound 0.1 µM) was 0.155 and the relative viability ([3]; first compound 0.02 µM) was 0.133. For the same cell line, the relative viability ([3]; first compound 0.06325 µM) was 0.0868, the relative viability ([3]; first compound 0.2 µM) was 0.131 and the relative viability ([3]; first compound 0.6325 µM) was 0.135. For the same cell line, the relative viability ([3]; first compound 2 µM) was 0.0768, the relative viability ([4]; first compound 0.06325 µM) was 0.404 and the relative viability ([4]; first compound 0.2 µM) was 0.702. It also gave a relative viability ([4]; first compound 0.6325 µM) of 0.746 and a relative viability ([4]; first compound 2 µM) of 0.472.
LU99A was tested, and the relative viability ([1]; first compound 0.001 µM) was 0.307, the relative viability ([1]; first compound 0.01 µM) was 0.281 and the relative viability ([1]; first compound 0.03162 µM) was 0.342. The relative viability ([1]; first compound 0.1 µM) was 0.274, the relative viability ([2]; first compound 0.001 µM) was 0.309 and the relative viability ([2]; first compound 0.01 µM) was 0.317. For the same cell line, the relative viability ([2]; first compound 0.03162 µM) was 0.316, the relative viability ([2]; first compound 0.1 µM) was 0.321 and the relative viability ([3]; first compound 0.02 µM) was 0.337. The relative viability ([3]; first compound 0.06325 µM) was 0.26, the relative viability ([3]; first compound 0.2 µM) was 0.345 and the relative viability ([3]; first compound 0.6325 µM) was 0.346. It also gave a relative viability ([3]; first compound 2 µM) of 0.372, a relative viability ([4]; first compound 0.02 µM) of 0.534 and a relative viability ([4]; first compound 0.06325 µM) of 0.511. For the same cell line, the relative viability ([4]; first compound 0.2 µM) was 0.581, the relative viability ([4]; first compound 0.6325 µM) was 0.565 and the relative viability ([4]; first compound 2 µM) was 0.561.
For NCI-H460, the relative viability ([1]; first compound 0.001 µM) was 0.663, the relative viability ([1]; first compound 0.01 µM) was 0.739 and the relative viability ([1]; first compound 0.03162 µM) was 0.88. For the same cell line, the relative viability ([1]; first compound 0.1 µM) was 0.624, the relative viability ([2]; first compound 0.001 µM) was 0.33 and the relative viability ([2]; first compound 0.01 µM) was 0.327. It also gave a relative viability ([2]; first compound 0.03162 µM) of 0.373, a relative viability ([2]; first compound 0.1 µM) of 0.32 and a relative viability ([3]; first compound 0.02 µM) of 0.057. The relative viability ([3]; first compound 0.06325 µM) was 0.276, the relative viability ([3]; first compound 0.2 µM) was 0.303 and the relative viability ([3]; first compound 0.6325 µM) was 0.355. For the same cell line, the relative viability ([3]; first compound 2 µM) was 0.251, the relative viability ([4]; first compound 0.02 µM) was 0.736 and the relative viability ([4]; first compound 0.06325 µM) was 0.776. For the same cell line, the relative viability ([4]; first compound 0.2 µM) was 0.843, the relative viability ([4]; first compound 0.6325 µM) was 0.573 and the relative viability ([4]; first compound 2 µM) was 0.674.
With RERF-LC-KJ the relative viability ([1]; first compound 0.001 µM) was 0.599, the relative viability ([1]; first compound 0.01 µM) was 0.504 and the relative viability ([1]; first compound 0.03162 µM) was 0.658. The relative viability ([1]; first compound 0.1 µM) was 0.56, the relative viability ([2]; first compound 0.001 µM) was 0.574 and the relative viability ([2]; first compound 0.01 µM) was 0.543. For the same cell line, the relative viability ([2]; first compound 0.03162 µM) was 0.627, the relative viability ([2]; first compound 0.1 µM) was 0.54 and the relative viability ([3]; first compound 0.02 µM) was 0.472. It also gave a relative viability ([3]; first compound 0.06325 µM) of 0.907, a relative viability ([3]; first compound 0.2 µM) of 0.595 and a relative viability ([3]; first compound 0.6325 µM) of 0.438. It also gave a relative viability ([3]; first compound 2 µM) of 0.325, a relative viability ([4]; first compound 0.02 µM) of 0.841 and a relative viability ([4]; first compound 0.06325 µM) of 0.806. For the same cell line, the relative viability ([4]; first compound 0.2 µM) was 0.782, the relative viability ([4]; first compound 0.6325 µM) was 0.748 and the relative viability ([4]; first compound 2 µM) was 0.697.
Cell Line NCI-H2087 has a relative viability ([1]; first compound 0.001 µM) of 0.53, a relative viability ([1]; first compound 0.01 µM) of 0.476 and a relative viability ([1]; first compound 0.03162 µM) of 0.572. For the same cell line, the relative viability ([1]; first compound 0.1 µM) was 0.592, the relative viability ([2]; first compound 0.001 µM) was 0.94 and the relative viability ([2]; first compound 0.01 µM) was 0.816. It also gave a relative viability ([2]; first compound 0.03162 µM) of 0.819, a relative viability ([2]; first compound 0.1 µM) of 0.907 and a relative viability ([3]; first compound 0.02 µM) of 0.472. It also gave a relative viability ([3]; first compound 0.06325 µM) of 0.737, a relative viability ([3]; first compound 0.2 µM) of 1.03 and a relative viability ([3]; first compound 0.6325 µM) of 0.963. It also gave a relative viability ([3]; first compound 2 µM) of 0.802, a relative viability ([4]; first compound 0.02 µM) of 0.97 and a relative viability ([4]; first compound 0.06325 µM) of 0.887. It also gave a relative viability ([4]; first compound 0.2 µM) of 1.01, a relative viability ([4]; first compound 0.6325 µM) of 1.06 and a relative viability ([4]; first compound 2 µM) of 0.818.
Cell Line COR-L23 has a relative viability ([1]; first compound 0.001 µM) of 0.763, a relative viability ([1]; first compound 0.01 µM) of 0.701 and a relative viability ([1]; first compound 0.03162 µM) of 0.954. For the same cell line, the relative viability ([1]; first compound 0.1 µM) was 0.735, the relative viability ([2]; first compound 0.001 µM) was 0.745 and the relative viability ([2]; first compound 0.01 µM) was 0.653. The relative viability ([2]; first compound 0.03162 µM) was 0.818, the relative viability ([2]; first compound 0.1 µM) was 0.79 and the relative viability ([3]; first compound 0.02 µM) was 0.681. It also gave a relative viability ([3]; first compound 0.06325 µM) of 0.583, a relative viability ([3]; first compound 0.2 µM) of 0.984 and a relative viability ([3]; first compound 0.6325 µM) of 0.92. For the same cell line, the relative viability ([3]; first compound 2 µM) was 0.733, the relative viability ([4]; first compound 0.02 µM) was 0.955 and the relative viability ([4]; first compound 0.06325 µM) was 0.87. The relative viability ([4]; first compound 0.2 µM) was 0.986, the relative viability ([4]; first compound 0.6325 µM) was 0.945 and the relative viability ([4]; first compound 2 µM) was 0.875.
NCI-H2009 was tested, and the relative viability ([1]; first compound 0.001 µM) was 0.699, the relative viability ([1]; first compound 0.01 µM) was 0.701 and the relative viability ([1]; first compound 0.03162 µM) was 0.695. For the same cell line, the relative viability ([1]; first compound 0.1 µM) was 0.64, the relative viability ([2]; first compound 0.001 µM) was 0.744 and the relative viability ([2]; first compound 0.01 µM) was 0.825. The relative viability ([2]; first compound 0.03162 µM) was 0.841, the relative viability ([2]; first compound 0.1 µM) was 0.784 and the relative viability ([3]; first compound 0.02 µM) was 0.357. For the same cell line, the relative viability ([3]; first compound 0.06325 µM) was 0.747, the relative viability ([3]; first compound 0.2 µM) was 0.989 and the relative viability ([3]; first compound 0.6325 µM) was 0.853. For the same cell line, the relative viability ([3]; first compound 2 µM) was 0.974, the relative viability ([4]; first compound 0.02 µM) was 1.22 and the relative viability ([4]; first compound 0.06325 µM) was 1.22. For the same cell line, the relative viability ([4]; first compound 0.2 µM) was 1.22, the relative viability ([4]; first compound 0.6325 µM) was 1.18 and the relative viability ([4]; first compound 2 µM) was 1.09.
